Counter-ions that a name gives are not always drawn.
Biological target: PI3Kδ (p110δ/p85α) (Homo sapiens (Human), UniProt O00329)
Assay: PI3Kδ scintillation proximity assay (Example A3)
Assay type: biochemical
Conditions: 20 μM ATP, 20 μM PIP2, 4 nM PI3Kδ; read-out: PI3Kδ SPA IC50
Protocol: [γ-^33P]ATP (10 mCi/mL) was purchased from Perkin-Elmer (Waltham, Mass.). […] PI3Kδ (p110δ/p85α) was purchased from Millipore (Bedford, Mass.). ATP, MgCl2, DTT, EDTA, MOPS and CHAPS were purchased from Sigma-Aldrich (St. Louis, Mo.). Wheat Germ Agglutinin (WGA) YSi SPA Scintillation Beads was purchased from GE healthcare life sciences (Piscataway, N.J.).
The kinase reaction was conducted in polystyrene 384-well matrix white plate from Thermo Fisher Scientific in a final volume of 25 μL. Inhibitors were first diluted serially in DMSO and added to the plate wells before the addition of other reaction components. The final concentration of DMSO in the assay was 0.5%. The PI3K assays were carried out at room temperature in 20 mM MOPS, pH 6.7, 10 mM MgCl2, 5 mM DTT and CHAPS 0.03%. Reactions were initiated by the addition of ATP, the final reaction mixture consisted of 20 μM PIP2, 20 μM ATP, 0.2 μCi [γ-^33P]ATP, 4 nM PI3Kδ. […] 25 mM EDTA, 400 μM ATP. The final concentration of SPA beads was 1.0 mg/mL. After the plate sealing, plates were shaken overnight at room temperature and centrifuged at 1800 rpm for 10 minutes, the radioactivity of the product was determined by scintillation counting on Topcount (Perkin-Elmer). IC50 determination was performed by fitting the curve of percent control activity versus the log of the inhibitor concentration using the GraphPad Prism 3.0 software.

PI3Kδ (p110δ/p85α), sequence (O00329 whole entry): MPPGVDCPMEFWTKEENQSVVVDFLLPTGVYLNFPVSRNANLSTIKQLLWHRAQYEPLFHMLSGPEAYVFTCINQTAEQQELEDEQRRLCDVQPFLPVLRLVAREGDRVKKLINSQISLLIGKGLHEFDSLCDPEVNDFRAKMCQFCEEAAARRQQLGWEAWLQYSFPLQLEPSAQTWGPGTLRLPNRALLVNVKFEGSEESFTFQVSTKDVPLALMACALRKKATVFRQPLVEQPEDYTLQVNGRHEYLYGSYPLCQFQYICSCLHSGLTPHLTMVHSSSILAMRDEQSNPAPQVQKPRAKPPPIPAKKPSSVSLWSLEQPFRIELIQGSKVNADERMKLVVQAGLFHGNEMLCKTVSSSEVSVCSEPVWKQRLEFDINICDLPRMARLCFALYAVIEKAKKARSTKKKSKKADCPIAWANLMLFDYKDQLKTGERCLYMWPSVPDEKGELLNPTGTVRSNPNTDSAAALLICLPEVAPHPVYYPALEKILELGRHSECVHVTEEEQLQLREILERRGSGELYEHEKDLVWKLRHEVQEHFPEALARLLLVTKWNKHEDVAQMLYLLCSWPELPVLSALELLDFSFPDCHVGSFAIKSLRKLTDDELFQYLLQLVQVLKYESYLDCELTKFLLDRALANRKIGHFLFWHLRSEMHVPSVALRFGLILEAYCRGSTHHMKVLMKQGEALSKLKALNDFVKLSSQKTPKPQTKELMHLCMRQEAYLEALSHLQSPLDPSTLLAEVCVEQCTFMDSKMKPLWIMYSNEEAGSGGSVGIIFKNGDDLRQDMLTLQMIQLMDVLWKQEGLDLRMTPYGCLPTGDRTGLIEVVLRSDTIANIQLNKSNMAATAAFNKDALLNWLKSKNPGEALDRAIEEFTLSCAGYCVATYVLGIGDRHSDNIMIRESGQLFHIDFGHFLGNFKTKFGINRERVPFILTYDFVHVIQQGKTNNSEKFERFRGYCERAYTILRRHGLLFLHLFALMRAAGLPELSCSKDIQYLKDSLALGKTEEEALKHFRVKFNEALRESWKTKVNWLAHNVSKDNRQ
PI3Kδ (p110δ/p85α), sequence (P27986 whole entry partner): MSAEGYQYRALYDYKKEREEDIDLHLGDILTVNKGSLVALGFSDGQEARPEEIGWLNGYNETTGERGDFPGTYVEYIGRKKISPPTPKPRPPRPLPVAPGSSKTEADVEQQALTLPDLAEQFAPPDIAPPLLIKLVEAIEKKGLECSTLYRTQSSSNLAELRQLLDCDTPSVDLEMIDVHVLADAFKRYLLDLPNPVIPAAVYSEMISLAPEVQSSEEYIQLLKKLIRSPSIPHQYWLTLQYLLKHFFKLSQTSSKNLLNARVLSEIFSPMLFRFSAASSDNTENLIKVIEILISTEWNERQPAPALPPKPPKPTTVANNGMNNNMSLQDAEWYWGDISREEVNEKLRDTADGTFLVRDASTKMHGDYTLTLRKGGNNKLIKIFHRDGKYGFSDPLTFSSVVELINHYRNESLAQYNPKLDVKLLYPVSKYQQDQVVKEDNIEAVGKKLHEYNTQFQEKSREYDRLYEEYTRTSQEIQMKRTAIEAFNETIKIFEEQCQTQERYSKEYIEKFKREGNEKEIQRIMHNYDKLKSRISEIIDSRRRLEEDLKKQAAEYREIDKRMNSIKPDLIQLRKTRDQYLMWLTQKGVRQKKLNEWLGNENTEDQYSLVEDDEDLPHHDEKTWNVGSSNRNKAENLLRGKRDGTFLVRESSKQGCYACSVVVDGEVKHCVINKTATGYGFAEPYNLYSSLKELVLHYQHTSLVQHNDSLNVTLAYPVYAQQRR

Compound | IC50 [nM]
CCOc1c(C(C)n2nc(C)c3c(N)ncnc32)cc(Cl)c(C#N)c1-c1ccc(-c2nnn(C)n2)nc1 (racemic) [Example 336, 4-[1-(4-amino-3-methyl-1H-pyrazolo[3,4-d]pyrimidin-1-yl)ethyl]-6-chloro-3-ethoxy-2-[6-(2-methyl-2H-tetrazol-5-yl)pyridin-3-yl]benzonitrile] | ≤ 10
CCOc1c(C(C)n2nc(C)c3c(N)ncnc32)cc(Cl)c(C#N)c1N1CC(COC)C1 (racemic) [Example 341, 4-[1-(4-amino-3-methyl-1H-pyrazolo[3,4-d]pyrimidin-1-yl)ethyl]-6-chloro-3-ethoxy-2-[3-(methoxymethyl)azetidin-1-yl]benzonitrile] | ≤ 10
COc1c(C(C)n2nc(C)c3c(N)ncnc32)cc(Cl)c(C)c1-c1cnn(CCO)c1 (single isomer, unassigned) [20 (1st peak), 2-(4-(3-(1-(4-Amino-3-methyl-1H-pyrazolo[3,4-d]pyrimidin-1-yl)ethyl)-5-chloro-2-methoxy-6-methylphenyl)-1H-pyrazol-1-yl)ethanol] | ≤ 10
COc1c(C(C)n2nc(C)c3c(N)ncnc32)cc(Cl)c(C)c1-c1cnn(CCO)c1 (single isomer, unassigned) [20 (2nd peak), 2-(4-(3-(1-(4-Amino-3-methyl-1H-pyrazolo[3,4-d]pyrimidin-1-yl)ethyl)-5-chloro-2-methoxy-6-methylphenyl)-1H-pyrazol-1-yl)ethanol] | 50 to 200
COc1c(C(C)n2ccc(=O)c3c(N)ncnc32)cc(Cl)c(C)c1-c1ccc(C(=O)N(C)C)nc1 (single isomer, unassigned) [25 (1st peak), 5-{3-[1-(4-Amino-5-oxopyrido[2,3-d]pyrimidin-8(5H)-yl)ethyl]-5-chloro-2-methoxy-6-methylphenyl}-N,N-dimethylpyridine-2-carboxamide] | 200 to 500
COc1c(C(C)n2ccc(=O)c3c(N)ncnc32)cc(Cl)c(C)c1-c1ccc(C(=O)N(C)C)nc1 (single isomer, unassigned) [25 (2nd peak), 5-{3-[1-(4-Amino-5-oxopyrido[2,3-d]pyrimidin-8(5H)-yl)ethyl]-5-chloro-2-methoxy-6-methylphenyl}-N,N-dimethylpyridine-2-carboxamide] | ≤ 10
COc1c(C(C)n2nc(C)c3c(N)ncnc32)cc(Cl)c(C#N)c1-c1ccc(C(=O)N(C)C)nc1 (single isomer, unassigned) [313 (2nd peak), 5-{3-[1-(4-amino-3-methyl-1H-pyrazolo[3,4-d]pyrimidin-1-yl)ethyl]-5-chloro-6-cyano-2-methoxyphenyl}-N,N-dimethylpyridine-2-carboxamide] | ≤ 10
CCOc1c(C(C)n2nc(C)c3c(N)ncnc32)cc(C)c(C#N)c1-c1ccc(C(=O)N(C)C)nc1 (single isomer, unassigned) [314 (2nd peak), 5-{3-[1-(4-amino-3-methyl-1H-pyrazolo[3,4-d]pyrimidin-1-yl)ethyl]-6-cyano-2-ethoxy-5-methylphenyl}-N,N-dimethylpyridine-2-carboxamide] | ≤ 10
CCOc1c(C(C)n2nc(C)c3c(N)ncnc32)cc(Cl)c(C#N)c1C1CNC(=O)O1 (single isomer, unassigned) [323 (1st peak), 4-[1-(4-amino-3-methyl-1H-pyrazolo[3,4-d]pyrimidin-1-yl)ethyl]-6-chloro-3-ethoxy-2-(2-oxo-1,3-oxazolidin-5-yl)benzonitrile] | ≤ 10
CCOc1c(C(C)n2nc(C)c3c(N)ncnc32)cc(Cl)c(C#N)c1C1CNC(=O)O1 (single isomer, unassigned) [323 (3rd peak), 4-[1-(4-amino-3-methyl-1H-pyrazolo[3,4-d]pyrimidin-1-yl)ethyl]-6-chloro-3-ethoxy-2-(2-oxo-1,3-oxazolidin-5-yl)benzonitrile] | 50 to 200
CCOc1c(C(C)n2nc(C)c3c(N)ncnc32)cc(Cl)c(C#N)c1C1CNC(=O)O1 (single isomer, unassigned) [323 (4th peak), 4-[1-(4-amino-3-methyl-1H-pyrazolo[3,4-d]pyrimidin-1-yl)ethyl]-6-chloro-3-ethoxy-2-(2-oxo-1,3-oxazolidin-5-yl)benzonitrile] | ≤ 10
COc1c(C(C)n2nc(C)c3c(N)ncnc32)cc(Cl)c(C)c1C1CNC(=O)CO1 (single isomer, unassigned) [324 (1st peak), 6-{3-[1-(4-Amino-3-methyl-1H-pyrazolo[3,4-d]pyrimidin-1-yl)ethyl]-5-chloro-2-methoxy-6-methylphenyl}morpholin-3-one] | 50 to 200
COc1c(C(C)n2nc(C)c3c(N)ncnc32)cc(Cl)c(C)c1-c1ccc(C(=O)N(C)C)c(F)c1 (single isomer, unassigned) [Example 21, 3′-[1-(4-Amino-3-methyl-1H-pyrazolo[3,4-d]pyrimidin-1-yl)ethyl]-5′-chloro-3-fluoro-2′-methoxy-N,N,6′-trimethylbiphenyl-4-carboxamide trifluoroacetate] | ≤ 10
CNC(=O)c1ccc(-c2c(C)c(Cl)cc(C(C)n3nc(C)c4c(N)ncnc43)c2OC)cc1F (single isomer, unassigned) [Example 22, 3′-[1-(4-Amino-3-methyl-1H-pyrazolo[3,4-d]pyrimidin-1-yl)ethyl]-5′-chloro-3-fluoro-2′-methoxy-N,6′-dimethylbiphenyl-4-carboxamide trifluoroacetate] | ≤ 10
COc1c(C(C)n2nc(C)c3c(N)ncnc32)cc(Cl)c(C)c1-c1cncnc1 (single isomer, unassigned) [Example 168, 1-(1-(5-chloro-2-methoxy-4-methyl-3-(pyrimidin-5-yl)phenyl)ethyl)-3-methyl-1H-pyrazolo[3,4-d]pyrimidin-4-amine] | ≤ 10
COc1c(C(C)n2nc(C)c3c(N)ncnc32)cc(Cl)c(C)c1-c1cnc(N)nc1 (single isomer, unassigned) [Example 169, 1-(1-(3-(2-aminopyrimidin-5-yl)-5-chloro-2-methoxy-4-methylphenyl)ethyl)-3-methyl-1H-pyrazolo[3,4-d]pyrimidin-4-amine] | ≤ 10
COc1c(C(C)n2nc(C)c3c(N)ncnc32)cc(Cl)c(C)c1-c1cncc(C#N)c1 (single isomer, unassigned) [Example 170, 5-(3-(1-(4-amino-3-methyl-1H-pyrazolo[3,4-d]pyrimidin-1-yl)ethyl)-5-chloro-2-methoxy-6-methylphenyl)nicotinonitrile] | ≤ 10

Results, then the molecule that gave them:

IC50 [nM] | Compound
≤ 10 | COc1c(C(C)n2nc(C)c3c(N)ncnc32)cc(Cl)c(F)c1C1CN(C[C@H](C)O)C1 (single isomer, unassigned) [68 (1st peak)]
≤ 10 | COc1c(C(C)n2nc(C)c3c(N)ncnc32)cc(Cl)c(C)c1C1CNC(=O)CO1 (single isomer, unassigned) [324 (2nd peak), 6-{3-[1-(4-Amino-3-methyl-1H-pyrazolo[3,4-d]pyrimidin-1-yl)ethyl]-5-chloro-2-methoxy-6-methylphenyl}morpholin-3-one]
≤ 10 | COc1c(C(C)n2nc(C)c3c(N)ncnc32)cc(Cl)c(C)c1C1CN(C(C)C)C1 (single isomer, unassigned) [Example 1, 1-{1-[5-Chloro-3-(1-isopropylazetidin-3-yl)-2-methoxy-4-methylphenyl]ethyl}-3-methyl-1H-pyrazolo[3,4-d]pyrimidin-4-amine bis(trifluoroacetate)]
≤ 10 | COc1c(C(C)n2nc(C)c3c(N)ncnc32)cc(Cl)c(C)c1C1CN(C(=O)C2CC2)C1 (single isomer, unassigned) [Example 119, 1-(1-{5-Chloro-3-[1-(cyclopropylcarbonyl)azetidin-3-yl]-2-methoxy-4-methylphenyl}ethyl)-3-methyl-1H-pyrazolo[3,4-d]pyrimidin-4-amine]
≤ 10 | COc1c(C(C)n2nc(C)c3c(N)ncnc32)cc(Cl)c(C)c1C1CN(C(=O)c2cnoc2C)C1 (single isomer, unassigned) [Example 120, 1-[1-(5-Chloro-2-methoxy-4-methyl-3-{1-[(5-methylisoxazol-4-yl)carbonyl]azetidin-3-yl}phenyl)ethyl]-3-methyl-1H-pyrazolo[3,4-d]pyrimidin-4-amine]
≤ 10 | COc1c(C(C)n2nc(C)c3c(N)ncnc32)cc(Cl)c(C)c1C1CN(C(=O)C2(O)CC2)C1 (single isomer, unassigned) [Example 122, 1-[(3-{3-[1-(4-Amino-3-methyl-1H-pyrazolo[3,4-d]pyrimidin-1-yl)ethyl]-5-chloro-2-methoxy-6-methylphenyl}azetidin-1-yl)carbonyl]cyclopropanol]
≤ 10 | COc1c(C(C)n2nc(C)c3c(N)ncnc32)cc(Cl)c(C)c1C1CN(C(=O)C(C)(C)O)C1 (single isomer, unassigned) [Example 123, 1-(3-{3-[1-(4-Amino-3-methyl-1H-pyrazolo[3,4-d]pyrimidin-1-yl)ethyl]-5-chloro-2-methoxy-6-methylphenyl}azetidin-1-yl)-2-methyl-1-oxopropan-2-ol]
≤ 10 | COc1c(C(C)n2nc(C)c3c(N)ncnc32)cc(Cl)c(C)c1C1CN(C(=O)c2cn[nH]c2)C1 (single isomer, unassigned) [Example 124, 1-(1-{5-Chloro-2-methoxy-4-methyl-3-[1-(1H-pyrazol-4-ylcarbonyl)azetidin-3-yl]phenyl}ethyl)-3-methyl-1H-pyrazolo[3,4-d]pyrimidin-4-amine]

— US9707233B2, “Heterocyclylamines as PI3K inhibitors” (Incyte Corporation, priority 2011, dated 2017)
